Test [1] deals with Staphylococcus aureus UC-76. Put plainly: In vitro antibacterial activity, MIC, microtitration dilution method. In kind it is cell-based. The settings on record: UC76, read-out: Minimal Inhibitory Concentration MIC. From the text: (§1) The compounds of the invention display potent antibacterial activity against both gram-positive and -negative bacteria when tested by the microtitration dilution method as described in Heifetz, et al, Antimicr. Agents & Chemoth., 6, 124 (1974), which is incorporated herein by reference.

The test system of a further test is Proteus rettgeri M 1771. The test is described as above. The settings on record: Providencia rettgeri, M1771, read-out: Minimal Inhibitory Concentration MIC. In kind it is cell-based.
From the text: as §1

The subject of test [2] is Pseudomonas aeruginosa UI-18. The description is as above. In kind it is cell-based. The settings on record: UI18, read-out: Minimal Inhibitory Concentration MIC.
From the text: as §1

Test [3] concerns Klebsiella pneumoniae MGH-2. The test is described as above. In kind it is cell-based. The settings on record: MGH2, read-out: Minimal Inhibitory Concentration MIC.
From the text: as §1

Test [4] relates to Streptococcus faecalis MGH-2. Described as above. In kind it is cell-based. To be noted: Enterococcus faecalis, MGH2, read-out: Minimal Inhibitory Concentration MIC.
From the text: as §1

The subject of test [5] is Staphylococcus aureus H 228. The description is as above. The format is cell-based. The settings on record: H228, read-out: Minimal Inhibitory Concentration MIC.
From the text: as §1

Test [6] deals with Enterobacter cloacae MA 2646. The description is as above. In kind it is cell-based. The settings on record: MA2646, read-out: Minimal Inhibitory Concentration MIC.
From the text: as §1

In another test the test system is Escherichia coli Vogel. Described as above. The format is cell-based. To be noted: read-out: Minimal Inhibitory Concentration MIC.
From the text: as §1

Test [7] deals with Streptococcus pneumoniae SV-1. Described as above. In kind it is cell-based. To be noted: SV1, read-out: Minimal Inhibitory Concentration MIC.
From the text: as §1

The test system of test [8] is Streptococcus pyogenes C-203. Described as above. The format is cell-based. To be noted: C203, read-out: Minimal Inhibitory Concentration MIC.
From the text: as §1

For another test, the system named is S. aureus. Put plainly: Acute mouse protection test (PD50). In kind it is in vivo. The settings on record: Staphylococcus aureus, mice, read-out: Protective Dose 50% PD50. The protocol:
(§2) The advantage of the compounds of the present invention has been observed when tested orally and compared to a standard quinolone where the 7-position contains a corresponding 3-aminomethylpyrrolidinyl group without the additional 3-alkyl or cycloalkyl substituent.
(§3) Therapeutic activities of the compounds were compared to acute mouse protection tests in which 18- to 22-g female Charles River CD-1 mice were used. Oral or subcutaneous doses in twofold rising incremental series were administered concurrently with bacterial challenge. Challenges were accomplished by the intraperitoneal injection of an estimated 100 medial lethal doses in 0.5 ml volumes of 5% hog gastric mucin or tryptic soy broth. Generally, >90% of the untreated controls died within 48 to 72 hours. Final survival percentages, obtained after four to seven days of observation among groups of 8 to 16 mice, were pooled and used to estimate median protective doses (PD50) by the log-probit method. Ideally a PO/SC ratio for a therapeutically relevant antibacterial should be ≤5. Table 2 indicates the improvement in PO/SC ratio.

A further test has as its system S. pyog. The test can be described thus: Acute mouse protection test (PD50). The format is in vivo. The settings on record: mice, read-out: Protective Dose 50% PD50. The protocol:
as §2, §3

The next test deals with E. coli. Put plainly: Acute mouse protection test (PD50). The settings on record: Escherichia coli, mice, read-out: Protective Dose 50% PD50. In kind it is in vivo. The protocol:
as §2, §3

A further test relates to P. aerug. The test can be described thus: Acute mouse protection test (PD50). The format is in vivo. To be noted: mice, read-out: Protective Dose 50% PD50. The protocol: as §2, §3
The test system of test [9] is E. coli, P. aerug., S. aureus, S. pyog. The test can be described thus: Acute mouse protection test, oral versus subcutaneous activity over all organisms. The settings on record: for PO/SC Ratio: ratio of PD50 PO to PD50 SC over the four organisms, mice. The format is in vivo, mice. The protocol:
as §2, §3

The test system of test [10] is gram-positive and -negative bacteria. The test can be described thus: In vitro antibacterial activity, microtitration dilution method (overall). The format is cell-based. The settings on record: comparison with Compound A.
From the text: as §1

In brackets after ≈: the same amount, converted by molar mass. Where two headings read alike, the source gives them in different places.

With `CC1(CN)CCN(c2nc3c(cc2F)c(=O)c(C(=O)O)cn3C2CC2)C1` (stereo not shown) [Example 3, 7-[[3-(Aminomethyl)-3-methyl]-1-pyrrolidinyl]-1-cyclopropyl-6-fluoro-1,4-dihydro-4-oxo-1,8-naphthyridine-3-carboxylic acid], the MIC in test [1] came out at 0.013 µg/mL (≈ 0.0361 µM); in the test with Proteus rettgeri M 1771, 0.8 µg/mL (≈ 2.22 µM); in [2], 0.8 µg/mL (≈ 2.22 µM); in test [3], 0.2 µg/mL (≈ 0.555 µM); in test [4] it was 0.05 µg/mL (≈ 0.139 µM); in test [5] it was 0.05 µg/mL (≈ 0.139 µM). Besides, the MIC in [6] is 0.1 µg/mL (≈ 0.277 µM); in the test with Escherichia coli Vogel it was 0.4 µg/mL (≈ 1.11 µM); in [7] it was 0.025 µg/mL (≈ 0.0694 µM); in test [8] it was 0.05 µg/mL (≈ 0.139 µM).

Turning to `NCC1CCN(c2c(F)cc3c(=O)c(C(=O)O)cn(C4CC4)c3c2F)C1` (stereo not shown) [Compound A, 7-[3-(aminomethyl)-1-pyrrolidinyl]-1-cyclopropyl-6,8-difluoro-1,4-dihydro-4-oxo-3-quinolinecarboxylic acid, reference compound], the ED50 in the test with S. aureus (PO) is 10 mg/kg; in the test on S. aureus (SC), 1 mg/kg; with S. pyog. (PO), 4 mg/kg; with S. pyog. (SC), 0.4 mg/kg; with E. coli (PO), 13 mg/kg; with E. coli (SC) it was 1 mg/kg. Further, the values for the ED50 in the test with P. aerug. (PO) and in the test on P. aerug. (SC) were more than 100 mg/kg and 3 mg/kg, respectively. Further, the “PO/SC Ratio” value in test [9] is given as not below 10. Also, the MIC in test [1] worked out at 0.013 µg/mL (≈ 0.0358 µM); in the test with Proteus rettgeri M 1771 it was 0.8 µg/mL (≈ 2.2 µM); in test [2], 0.8 µg/mL (≈ 2.2 µM); in test [3], 0.4 µg/mL (≈ 1.1 µM); in test [4], 0.1 µg/mL (≈ 0.275 µM); in [5], 0.1 µg/mL (≈ 0.275 µM). The MIC in [6] was determined as 0.8 µg/mL (≈ 2.2 µM); with Escherichia coli Vogel it was 0.2 µg/mL (≈ 0.55 µM); in test [7] it was 0.012 µg/mL (≈ 0.033 µM); in test [8], 0.012 µg/mL (≈ 0.033 µM).

As for `CC1(CN)CCN(c2c(F)cc3c(=O)c(C(=O)O)cn(C4CC4)c3c2Cl)C1` (stereo not shown) [Example 4, 7-[3-(Aminomethyl)-3-methyl-1-pyrrolidinyl]-8-chloro-1-cyclopropyl-6-fluoro-1,4-dihydro-4-oxo-3-quinolinecarboxylic acid], the MIC in test [1] is not above 0.003 µg/mL; in the test on Proteus rettgeri M 1771 it was 0.1 µg/mL (≈ 0.254 µM); in [2], 0.2 µg/mL (≈ 0.508 µM); in test [3], 0.05 µg/mL (≈ 0.127 µM); in test [4], 0.013 µg/mL (≈ 0.033 µM); in test [5] it was 0.013 µg/mL (≈ 0.033 µM). In addition, the MIC is 0.05 µg/mL (≈ 0.127 µM) in [6], 0.025 µg/mL (≈ 0.0635 µM) in the test with Escherichia coli Vogel, not above 0.003 µg/mL in [7] and 0.013 µg/mL (≈ 0.033 µM) in test [8].

Consider `CC1(CN)CCN(c2c(F)c(N)c3c(=O)c(C(=O)O)cn(C4CC4)c3c2F)C1` (stereo not shown) [Example 2, 5-Amino-7-[[3-(aminomethyl)-3-methyl]-1-pyrrolidinyl]-1-cyclopropyl-6,8-difluoro-1,4-dihydro-4-oxo-3-quinolinecarboxylic acid], for which the MIC was not above 0.003 µg/mL in test [1]; 0.4 µg/mL (≈ 1.02 µM) in the test on Proteus rettgeri M 1771; 0.8 µg/mL (≈ 2.04 µM) in test [2]; 0.1 µg/mL (≈ 0.255 µM) in test [3]; 0.025 µg/mL (≈ 0.0637 µM) in test [4]; 0.013 µg/mL (≈ 0.0331 µM) in test [5]. Moreover, the MIC in [6] was 0.1 µg/mL (≈ 0.255 µM); with Escherichia coli Vogel, 0.1 µg/mL (≈ 0.255 µM); in test [7] it was not above 0.003 µg/mL; in test [8], 0.013 µg/mL (≈ 0.0331 µM).

As for `CC1(CN)CCN(c2c(F)cc3c(=O)c(C(=O)O)cn(C4CC4)c3c2F)C1` (stereo not shown) [Example 1, 7-[[3-(Aminomethyl)-3-methyl]-1-pyrrolidinyl]-1-cyclopropyl-6,8-difluoro-1,4-dihydro-4-oxo-3-quinolinecarboxylic acid], the ED50 in the test with S. aureus (PO) was determined as 5 mg/kg; in the test with S. aureus (SC) it was 2 mg/kg; with S. pyog. (PO), 9 mg/kg; in the test with S. pyog. (SC), 3 mg/kg; with E. coli (PO) it was 2 mg/kg; with E. coli (SC) it was 1 mg/kg. In addition, the ED50 amounted to 38 mg/kg in the test with P. aerug. (PO) and 18 mg/kg in the test on P. aerug. (SC). Moreover, the “oral activity in mice compared to Compound A” value in test [9] (PD50, mouse protection, comparison with Compound A) is “greater oral activity in mice”. The “PO/SC Ratio” value in test [9] was not above 3. For the same compound, in [10], the “in vitro activity compared to Compound A” value is given as “comparable in vitro activity”. Also, the MIC in test [1] was not above 0.003 µg/mL; in the test on Proteus rettgeri M 1771, 0.2 µg/mL (≈ 0.53 µM); in [2], 0.4 µg/mL (≈ 1.06 µM); in test [3], 0.1 µg/mL (≈ 0.265 µM); in test [4], 0.013 µg/mL (≈ 0.0344 µM); in test [5], 0.013 µg/mL (≈ 0.0344 µM). The MIC amounted to 0.025 µg/mL (≈ 0.0662 µM) in test [6], 0.05 µg/mL (≈ 0.132 µM) with Escherichia coli Vogel, 0.006 µg/mL (≈ 0.0159 µM) in [7] and 0.025 µg/mL (≈ 0.0662 µM) in test [8].

These data come from patent US4771055A, “7-[[3-(aminomethyl)-3-alkyl]-1-pyrrolidinyl]-quinoline-carboxylic acids” (Warner-Lambert Company, priority 1987, dated 1988).
